Reference: publication PMC7395068, “The evolution of strategies to minimise the risk of human drug-induced liver injury (DILI) in drug discovery and development” (Archives of Toxicology, 2020)
Where two headings read alike, the source gives them in different places.

Experiments:
[1] = cited from earlier work
rBsep = settings: In vitro Assay; ref Dawson 2012; cited from earlier work
PHH [2] = settings: cited from earlier work
[3] = system: isolated mouse liver mitochondria; settings: In vitro Assay; ref Porceddu 2012; cited from earlier work
PHH [4] = settings: In vitro Assay; ref Albrecht 2019; cited from earlier work
HepG2 cells [5] = settings: cited from earlier work
[6] = read-out: Human plasma Cmax; total plasma Cmax.tot, median of 9 literature references; cited from earlier work
[7] = ref Chen 2011; cited from earlier work
hLiMTs [8] = settings: cited from earlier work
[9] = plasma free fraction; cited from earlier work
hLiMTs [10] = assay: Combined HCI (HCS) and cellular ATP 3D assay in hLiMTs; settings: for AC50 / minimal effective concentration: Homo sapiens
PHH spheroids = settings: cited from earlier work
HepG2 cells [11] = settings: cited from earlier work; remark: listed apart in the source
[12] = system: THLE or HepG2 cells, isolated mitochondria, BSEP; settings: cited from earlier work
[13] = system: THLE-Null and THLE-3A4 cells; settings: In vitro Assay; ref Gustafsson 2014; cited from earlier work
HepaRG spheroids = assay: Combined HCI (HCS) and cellular ATP 3D assay in HepaRG spheroids; settings: for AC50 / minimal effective concentration: Homo sapiens
HepG2 = system: HepG2; parameters: method as in Albrecht 2019; settings: In vitro Assay; ref Albrecht 2019; cited from earlier work
[14] = Plasma free fraction (fu) and unbound Cmax (Cmax,u); format: in vitro ADME, human; settings: unbound plasma Cmax
[15] = cited from earlier work; remark: listed apart in the source
[16] = system: HepG2 C3A spheroid, BSEP, Glu/Gal in HepG2 cells, bioactivation; settings: cited from earlier work
[17] = In vitro Assay, ref Proctor 2017
[18] = Microtissue model structural based (HCI), combined HCS and ATP, MEC < 25 × Cmax.tot cut-off
[19] = In vitro Assay, ref Persson 2013
[20] = Modeled in vitro assays (cytotoxicity, mitochondrial dysfunction, BSEP), ref Aleo et al. 2019

Structure (SMILES): O=C1CN(/N=C/c2ccc([N+](=O)[O-])o2)C(=O)N1 [nitrofurantoin, reference compound]
- Assigned DILI category ([1]; Chen et al. 2016 or literature alignment, ref Chen et al. 2016): 3
- In vivo DILI ([1]; […]): +VE
- In vivo DILI ([1]; ref Albrecht 2019): +VE
- In vivo DILI ([1]; ref Aleo 2019): +VE
- In vivo DILI ([1]; ref Dawson 2012): +VE
- In vivo DILI ([1]; ref Garside 2014): +VE
- In vivo DILI ([1]; ref Gustafsson 2014): +VE
- In vivo DILI ([1]; ref O'Brien 2006): +VE
- In vivo DILI ([1]; ref Persson 2013): +VE
- In vivo DILI ([1]; ref Porceddu 2012): +VE
- In vivo DILI ([1]; ref Proctor 2017): +VE
- In vivo DILI ([1]; ref Vorrink 2018): +VE
- In vivo DILI ([1]; ref Williams 2019): +VE
- Inhibition of rBsep cutoff<1& cmax u>.2 (rBsep): -VE
- Inhibition of rBsep cutoff<3 (rBsep): -VE
- PHH/100uM, Proctor (2017) (PHH [2]; 2D PHH, ATP, IC50 threshold 100 µM, ref Proctor et al. 2017): +VE (IC50 threshold of 100 µM)
- PHH ATP <100uM (PHH [2]; [17]): +VE (IC50 threshold of 100 µM)
- in vitro data EC2<=1x Cmax [3]: +VE
- in vitro data EC20<=2uM [3]: -VE
- Cytotoxicity PHH 48 hrs (PHH [4]): +VE
- Structural based (HCI) (HepG2 cells [5]; In vitro Assay, ref O'Brien 2006): +VE
- DILI in vitro assay prediction, O'Brien (2006) (HepG2 cells [5]; Structural based (HCI), HepG2, ref O'Brien et al. 2006): +VE (lowest HCI endpoint IC50 (or in the absence of dose–response < 100 µM) < 30 × total human plasma exposure levels (Cmax.tot))
- Cmax [6]: 21 µM
- DILI Score (FDA) (1-8) [7]: 8
- hLiMTs ATP <100uM (hLiMTs [8]; [17]): +VE (IC50 threshold of 100 µM)
- hLiMTs/100uM, Proctor (2017) (hLiMTs [8]; hLiMTs, ATP, IC50 threshold 100 µM, ref Proctor et al. 2017): +VE (IC50 threshold of 100 µM)
- fu [9]: 0.310
- AC50 (hLiMTs [10]; read-out: ATP endpoint AC50): 11.7 µM
- minimal effective concentration (hLiMTs [10]; read-out: ATP endpoint MEC): 3.21 µM
- AC50 (hLiMTs [10]; read-out: HCS endpoint AC50): 73.6 µM
- minimal effective concentration (hLiMTs [10]; read-out: HCS endpoint MEC): 19.4 µM
- DILI prediction hLiMTs (HCS-MEC) (hLiMTs [10]; [18]): +VE (MEC < 25 × Cmax.tot cut-off)
- hLiMTs <25x Avg Cmax ATP (hLiMTs [10]; hLiMTs, ATP endpoint, cut-off <25x Avg Cmax): +ve
- hLiMTs <100x Avg Cmaxu ATP (hLiMTs [10]; hLiMTs, ATP endpoint, cut-off <100x Avg Cmaxu): +ve (<100x Avg Cmaxu)
- hLiMTs <25x Avg Cmax HCS (hLiMTs [10]; hLiMTs, HCS endpoints, cut-off <25x Avg Cmax): +ve
- hLiMTs <100x Avg Cmaxu HCS (hLiMTs [10]; hLiMTs, HCS endpoints, cut-off <100x Avg Cmaxu): +ve (<100x Avg Cmaxu)
- hLiMTs <25x Avg Cmax All (hLiMTs [10]; hLiMTs, all endpoints (ATP and HCS), cut-off <25x Avg Cmax): +ve
- hLiMTs Cmax max All (hLiMTs [10]; hLiMTs, all endpoints, Cmax max used): +ve
- hLiMTs Cmax min All (hLiMTs [10]; hLiMTs, all endpoints, Cmax min used): +ve
- hLiMTs <10 uM All (hLiMTs [10]; hLiMTs, all endpoints, cut-off <10 uM): +ve (<10 uM)
- hLiMTs <100x Avg Cmaxu All (hLiMTs [10]; hLiMTs, all endpoints, cut-off <100x Avg Cmaxu): +ve (<100x Avg Cmaxu)
- hLiMTs ATP <20 x Cmax (PHH spheroids; In vitro Assay, ref Vorrink 2018): +VE (IC20 < 20 × Cmax.tot cut-off)
- DILI in vitro assay prediction, Vorrink (2018) (PHH spheroids; PHH spheroids, ATP, 14 days, IC20 < 20 × Cmax.tot, ref Vorrink et al. 2018): +VE (IC20 < 20 × Cmax.tot cut-off)
- Cluser analysis (HepG2 cells [11]; [19]): -VE
- Structural based (HCI) (HepG2 cells [11]; [19]): +VE
- DILI in vitro assay prediction, Persson (2013) (HepG2 cells [11]; Structural based (HCI), HepG2, ref Persson et al. 2013): -VE
- Partition Hybrid HRM Score ([12]; In vitro Assay, ref Aleo 2019): +VE
- Ro2 Hybrid HRM Score ([12]; In vitro Assay, ref Aleo 2019): +VE
- Partition Hybrid HRM Score ≥4, Aleo (2019) [12, 20]: +VE (Partition Hybrid HRM Score ≥4)
- Partition Hybrid HRM Score ≥8, Aleo (2019) [12, 20]: -VE
- Rule of Two hybrid HRM Score ≥3, Aleo (2019) [12, 20]: +VE (Rule of Two hybrid HRM Score ≥3)
- Rule of Two hybrid HRM Score ≥8, Aleo (2019) [12, 20]: -VE
- THLE-Null [13]: -VE
- HepaRG <25x Avg Cmax ATP (HepaRG spheroids; HepaRG, ATP endpoint, cut-off <25x Avg Cmax): +ve
- HepaRG <100x Avg Cmaxu ATP (HepaRG spheroids; HepaRG, ATP endpoint, cut-off <100x Avg Cmaxu): +ve (<100x Avg Cmaxu)
- HepaRG <25x Avg Cmax HCS (HepaRG spheroids; HepaRG, HCS endpoints, cut-off <25x Avg Cmax): +ve
- HepaRG <100x Avg Cmaxu HCS (HepaRG spheroids; HepaRG, HCS endpoints, cut-off <100x Avg Cmaxu): +ve (<100x Avg Cmaxu)
- HepaRG <25x Avg Cmax All (HepaRG spheroids; HepaRG, all endpoints (ATP and HCS), cut-off <25x Avg Cmax): +ve
- HepaRG Cmax max All (HepaRG spheroids; HepaRG, all endpoints, Cmax max used): +ve
- HepaRG Cmax min All (HepaRG spheroids; HepaRG, all endpoints, Cmax min used): +ve
- HepaRG <10 uM All (HepaRG spheroids; HepaRG, all endpoints, cut-off <10 uM): +ve (<10 uM)
- HepaRG <100x Avg Cmaxu All (HepaRG spheroids; HepaRG, all endpoints, cut-off <100x Avg Cmaxu): +ve (<100x Avg Cmaxu)
- AC50 (HepaRG spheroids; HepaRG, read-out: ATP endpoint AC50): 11.6 µM
- minimal effective concentration (HepaRG spheroids; HepaRG, read-out: ATP endpoint MEC): 9.27 µM
- AC50 (HepaRG spheroids; HepaRG, read-out: HCS endpoint AC50): 17.5 µM
- minimal effective concentration (HepaRG spheroids; HepaRG, read-out: HCS endpoint MEC): 5.59 µM
- DILI prediction HepaRG spheroids (HCS-MEC) (HepaRG spheroids; [18]): +VE (MEC < 25 × Cmax.tot cut-off)
- Cytotoxicity HepG2 48 hrs (HepG2): +VE
- Human plasma Cmax,u [14]: 6.508 µM
- DILI severity category (Chen et al. [2016]) ([15]; LTKB DILIrank category, ref Chen et al. 2016): Most
- DILI severity category (Chen 2016) ([15]; human DILI classification, LTKB DILIrank, ref Chen et al. 2016): Most
- DILI severity category ([15]; human DILI severity, ref Chen et al.): Most
- DILI +VE (5-8), DILI -VE (-4) ([15]; ref Chen 2016): +VE
- DILI severity category ([15]; ref Chen 2016): vMost-DILI-Concern
- Bayesian Machine Learning DILI prediction, Williams (2019) ([16]; Bayesian modeling, ref Williams et al. 2019): +VE
- Bayesian Machine Learning ([16]; In vitro Assay, ref Williams 2019): +VE
